Series [1] deals with T1, recombinant rat mGluR2 expressed in CHO cells (Rattus norvegicus, UniProt P31421).
T1 construct: expressed in transfected cells; vector pcDNA I-amp, construct pcD1mGR2
Description: [3H]-LY354740 binding on mGlu2 transfected CHO cell membranes (displacement binding assay).
Description: These values were obtained by indirect measurement of the affinity of the compounds for the recombinant rat mGluR2 expressed in CHO cells using a displacement binding assay with 3H-LY354740.
Transfection and Cell Culture
cDNA encoding the rat mGlu2 receptor protein in pBluescript II was obtained from Prof. S. Nakanishi (Kyoto, Japan), and subcloned into the eukaryotic expression vector pcDNA I-amp from Invitrogen (NV Leek, The Netherlands). This vector construct (pcD1mGR2) was co-transfected with a psvNeo plasmid encoding the gene for neomycin resistance, into CHO cells by a modified calcium phosphate method described by Chen & Okayama (1988). The cells were maintained in Dulbecco's Modified Eagle medium with reduced L-glutamine (2 mM final concentration) and 10% dialysed foetal calf serum from Gibco BRL (Basel, Switzerland). Selection was made in the presence of G-418 (1000 ug/ml final). Clones were identified by reverse transcription of 5 μg total RNA, followed by PCR using mGlu2 receptor specific primers 5′-[sequence]-3′ and 5′-[sequence]-3′ in 60 mM Tris HCl (pH 10), 15 mM (NH4)2SO4, 2 mM MgCl2, 25 units/ml Taq Polymerase with 30 cycles annealing at 60° C. for 1 min., extention at 72° C. for 30 s, and 1 min. 95° C. denaturation.
Cells, cultured as above, were harvested and washed three times with cold PBS and frozen at −80° C. The pellet was resuspended in cold 20 mM HEPES-NaOH buffer containing 10 mM EDTA (pH 7.4), and homogenised with a polytron (Kinematica, AG, Littau, Switzerland) for 10 s at 10 000 rpm. After centrifugation for 30 min. at 4° C., the pellet was washed once with the same buffer, and once with cold 20 mM HEPES-NaOH buffer containing 0.1 mM EDTA, (pH 7.4). Protein content was measured using the Pierce method (Socochim, Lausanne, Switzerland) using bovine serum albumin as standard.
After thawing, the membranes were resuspended in cold 50 mM Tris-HCl buffer containing 2 mM MgCl2 and 2 mM CaCl2, (pH 7) (binding buffer). The final concentration of the membranes in the assays was 25 µg protein/ml. Inhibition experiments were performed with membranes incubated with 10 nM [^3H]-LY354740 at room temperature, for 1 hour, in presence of various concentrations of the compound to be tested. Following the incubations, membranes were filtered onto Whatmann GF/C glass fiber filters and washed 5 times with cold binding buffer. Non specific binding was measured in the presence of 10 μM DCG IV. After transfer of the filters into plastic vials containing 10 ml of Ultima-gold scintillation fluid (Packard, Zürich, Switzerland), the radioactivity was measured by liquid scintillation in a Tri-Carb 2500 TR counter (Packard, Zürich, Switzerland).
The inhibition curves were fitted with a four parameter logistic equation giving IC50 values, and Hill coefficients and the Ki values were calculated using the Cheng and Prusoff equation (Cheng, Y. and Prusoff, W. H., Biochem. Pharmacol. 1973, 22, 3099-3108). A small Ki value expresses high affinity of the compound towards the receptor.

T1 sequence (P31421 19-872): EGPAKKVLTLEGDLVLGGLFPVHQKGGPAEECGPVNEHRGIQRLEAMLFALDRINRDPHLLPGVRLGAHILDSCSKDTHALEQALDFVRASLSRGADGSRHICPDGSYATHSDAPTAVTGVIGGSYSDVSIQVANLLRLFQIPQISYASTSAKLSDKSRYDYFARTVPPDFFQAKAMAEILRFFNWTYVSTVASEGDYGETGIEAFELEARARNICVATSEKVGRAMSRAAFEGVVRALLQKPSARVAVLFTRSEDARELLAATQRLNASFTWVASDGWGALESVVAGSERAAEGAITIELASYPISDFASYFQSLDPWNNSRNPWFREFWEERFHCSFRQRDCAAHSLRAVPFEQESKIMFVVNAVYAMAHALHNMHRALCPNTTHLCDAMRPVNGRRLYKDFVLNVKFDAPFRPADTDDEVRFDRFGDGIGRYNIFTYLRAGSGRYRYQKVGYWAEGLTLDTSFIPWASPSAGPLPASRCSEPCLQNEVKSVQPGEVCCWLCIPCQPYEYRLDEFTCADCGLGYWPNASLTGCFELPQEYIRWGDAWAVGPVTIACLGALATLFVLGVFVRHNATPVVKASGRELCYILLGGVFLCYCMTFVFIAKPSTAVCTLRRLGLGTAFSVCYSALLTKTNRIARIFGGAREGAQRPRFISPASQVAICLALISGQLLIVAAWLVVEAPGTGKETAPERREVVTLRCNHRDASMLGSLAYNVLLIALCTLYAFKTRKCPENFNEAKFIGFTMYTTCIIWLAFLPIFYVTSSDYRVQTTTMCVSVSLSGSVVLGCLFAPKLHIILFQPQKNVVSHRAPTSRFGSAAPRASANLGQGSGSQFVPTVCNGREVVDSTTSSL

`CN(C)c1cc2c(cc1-c1cccc(F)c1F)NC(=O)CC(c1cccc(-n3ccnn3)c1)=N2` [Example 8, 8-(2,3-Difluoro-phenyl)-7-dimethylamino-4-(3-[1,2,3]triazol-1-yl-phenyl)-1,3-dihydro-benzo[b][1,4]diazepin-2-one]: the melting point lay within 197 to 199 °C. Further, the Ki in series [1] was 70 nM. The matching figures for `COCCN(C)c1cc2c(cc1Cl)NC(=O)CC(c1cccc(-c3cc(C)no3)c1)=N2` [Example 11]: 182 °C and 25 nM. The matching figures for `CN(C)c1cc2c(cc1Cl)NC(=O)CC(c1cccc(-c3ccnn3C)c1)=N2` [Example 16, 8-Chloro-7-dimethylamino-4-[3-(2-methyl-2H-pyrazol-3-yl)-phenyl]-1,3-dihydro-benzo[b][1,4]diazepin-2-one]: 225 °C and 23 nM. For the molecule `CN(C)c1cc2c(cc1Cl)NC(=O)CC(c1cccc(-c3nc(CO)cs3)c1)=N2` [Example 19, 8-Chloro-7-dimethylamino-4-[3-(4-hydroxymethyl-thiazol-2-yl)-phenyl]-1,3-dihydro-benzo[b][1,4]diazepin-2-one], the melting point is 134 °C (dec.). The Ki in series [1] is 30 nM. Taken in the same sequence, the figures for `Cc1cc(-c2cccc(C3=Nc4cc(OCC(F)(F)F)c(-c5ccccc5F)cc4NC(=O)C3)c2)on1` [Example 24, 8-(2-Fluoro-phenyl)-4-[3-(3-methyl-isoxazol-5-yl)-phenyl]7-(2,2,2-trifluoro-ethoxy)-1,3-dihydro-benzo[b][1,4]diazepin-2-one] were 218 to 220 °C and 30 nM. For `CN(C)c1cc2c(cc1Cl)NC(=O)CC(c1cccc(-c3nc(CO)co3)c1)=N2` [Example 27, 8-Chloro-7-dimethylamino-4-[3-(4-hydroxymethyl-oxazol-2-yl)-phenyl]-1,3-dihydro-benzo[b][1,4]diazepin-2-one], the melting point is 193 to 195 °C. The Ki in series [1] worked out at 39 nM. The matching figures for `CCCN(C)c1cc2c(cc1Cl)NC(=O)CC(c1cccc(-n3nncc3CO)c1)=N2` [Example 29, 8-Chloro-7-(methyl-propyl-amino)-4-[3-(5-hydroxymethyl-[1,2,3]triazol-1-yl)-phenyl]-1,3-dihydro-benzo[b][1,4]diazepin-2-one]: 178 °C (dec.) and 30 nM.

On to `CCN(CC)c1cc2c(cc1Cl)NC(=O)CC(c1cccc(-n3nncc3CO)c1)=N2` [Example 30, 8-Chloro-7-(diethyl-amino)-4-[3-(5-hydroxymethyl-[1,2,3]triazol-1-yl)-phenyl]-1,3-dihydro-benzo[b][1,4]diazepin-2-one], for which the melting point was 208 °C (dec.). In addition, the Ki in series [1] stood at 44 nM. Molecule `O=C1CC(c2cccc(-n3nncc3CO)c2)=Nc2cc(N3CCCC3)c(Cl)cc2N1` [Example 32, 8-Chloro-4-[3-(5-hydroxymethyl-[1,2,3]triazol-1-yl)-phenyl]-7-pyrrolidin-1-yl-1,3-dihydro-benzo[b][1,4]diazepin-2-one] displayed a melting point of 193 to 197 °C. In series [1], the Ki was 19 nM. Consider `CN(c1cc2c(cc1Cl)NC(=O)CC(c1cccc(-n3nncc3CO)c1)=N2)C1CC1` [Example 37, 8-Chloro-7-(cyclopropyl-methyl-amino)-4-[3-(5-hydroxymethyl-[1,2,3]triazol-1-yl)-phenyl]-1,3-dihydro-benzo[b][1,4]diazepin-2-one], for which the Ki in series [1] was determined as 160 nM.

On to `CN(C)c1cc2c(cc1Cl)NC(=O)CC(c1cccc(-n3cccn3)c1)=N2` [Example 52, 8-Chloro-7-dimethylamino-4-(3-pyrazol-1-yl-phenyl)-1,3-dihydro-benzo[b][1,4]diazepin-2-one], for which the melting point fell in the range of 231 to 234 °C. Further, in series [1], the Ki is 110 nM. The matching figures for `CN(C)c1cc2c(cc1C(F)(F)F)NC(=O)CC(c1cccc(-c3cc(CN4CCOCC4)no3)c1)=N2` [Example 54, 7-Dimethylamino-4-[3-(3-morpholin-4-ylmethyl-isoxazol-5-yl)-phenyl]-8-trifluoromethyl-1,3-dihydro-benzo[b][1,4]diazepin-2-one]: 165 °C and 125 nM.

In turn, `CSc1nccn1-c1cccc(C2=Nc3cc(N(C)C)c(C(F)(F)F)cc3NC(=O)C2)c1` [Example 71, 7-Dimethylamino-4-[3-(2-methylsulfanyl-imidazol-1-yl)-phenyl]-8-trifluoromethyl-1,3-dihydro-benzo[b][1,4]diazepin-2-one] had a melting point of 192 °C. For the same molecule, the Ki in series [1] worked out at 19 nM.

In the case of `CN(CC1CC1)c1cc2c(cc1C(F)(F)F)NC(=O)CC(c1ccnc(C#N)c1)=N2` [Example 78, 4-[8-(Cyclopropylmethyl-methyl-amino)-4-oxo-7-trifluoromethyl-4,5-dihydro-3H-benzo[b][1,4]diazepin-2-yl]-pyridine-2-carbonitrile], the melting point is 155 °C. In addition, the Ki in series [1] was 5 nM. `CN(C)c1cc2c(cc1C(F)(F)F)NC(=O)CC(c1cccc(-n3nncc3CNC3CC3)c1)=N2` [Example 82, 4-[3-(5-Cyclopropylaminomethyl-[1,2,3]triazol-1-yl)-phenyl]-7-dimethylamino-8-trifluoromethyl-1,3-dihydro-benzo[b][1,4]diazepin-2-one]: the inhibition constant (Ki) in series [1] amounted to 49 nM. Regarding `N#Cc1cc(C2=Nc3cc(OCC(F)(F)F)c(C(F)(F)F)cc3NC(=O)C2)ccn1` [Example 88, 4-[4-Oxo-8-(2,2,2-trifluoro-ethoxy)-7-trifluoromethyl-4,5-dihydro-3H-benzo[b][1,4]diazepin-2-yl]-pyridine-2-carbonitrile], the melting point was in the range of 252 to 255 °C. The Ki in series [1] was 4 nM. For the molecule `CCCN(C)c1cc2c(cc1C)NC(=O)CC(c1cccc(C#N)c1)=N2` [Example 92, 3-[7-Methyl-8-(methyl-propyl-amino)-4-oxo-4,5-dihydro-3H-benzo[b][1,4]diazepin-2-yl]-benzonitrile], the melting point is 195 °C. The Ki in series [1] was 25 nM. Taken in the same sequence, the figures for `CC(C)CN(C)c1cc2c(cc1Cl)NC(=O)CC(c1cccc(-n3nncc3CO)c1)=N2` [Example 101, 8-Chloro-4-[3-(5-hydroxymethyl-[1,2,3]triazol-1-yl)-phenyl]-7-(isobutyl-methyl-amino)-1,3-dihydro-benzo[b][1,4]diazepin-2-one] were 201 °C and 20 nM. For `CCN(CC)c1cc2c(cc1C#N)NC(=O)CC(c1cccc(-c3cc(C)no3)c1)=N2` [Example 107, 8-Diethylamino-2-[3-(3-methyl-isoxazol-5-yl)-phenyl]-4-oxo-4,5-dihydro-3H-benzo[b][1,4]diazepine-7-carbonitrile], the melting point came to 191 °C. For the same molecule, in series [1], the Ki worked out at 9 nM. Taken in the same sequence, the figures for `CCCN(C)c1cc2c(cc1Cl)NC(=O)CC(c1cccc(-n3nncc3CN3CCC3)c1)=N2` [Example 122, 4-[3-(5-Azetidin-1-ylmethyl-[1,2,3]triazol-1-yl)-phenyl]-8-chloro-7-(methyl-propyl-amino)-1,3-dihydro-benzo[b][1,4]diazepin-2-one] were 169 °C and 15 nM. For the molecule `CC(C)CN(C)c1cc2c(cc1Cl)NC(=O)CC(c1cccc(-n3ncnc3CO)c1)=N2` [Example 163, 8-Chloro-4-[3-(5-hydroxymethyl-[1,2,4]triazol-1-yl)-phenyl]-7-(isobutyl-methyl-amino)-1,3-dihydro-benzo[b][1,4]diazepin-2-one], the melting point is 195 °C. In addition, the Ki in series [1] is 89 nM. On to `CCCN(C)c1cc2c(cc1C(F)(F)F)NC(=O)CC(c1cccc(-n3cncn3)c1)=N2` [Example 169], for which the melting point amounted to 185 °C. In addition, the Ki in series [1] is 27 nM. As for `CC(C)CN(C)c1cc2c(cc1C(F)(F)F)NC(=O)CC(c1cccc(-n3cncn3)c1)=N2` [Example 174, 7-(Isobutyl-methyl-amino)-4-(3-[1,2,4]triazol-1-yl-phenyl)-8-trifluoromethyl-1,3-dihydro-benzo[b][1,4]diazepin-2-one], the melting point amounted to 198 °C. The Ki in series [1] came out at 12 nM.

Molecule `CC(C)CN(C)c1cc2c(cc1Cl)NC(=O)CC(c1cccc(-c3nc(CO)cs3)c1)=N2` [Example 186, 8-Chloro-4-[3-(4-hydroxymethyl-thiazol-2-yl)-phenyl]-7-(isobutyl-methyl-amino)-1,3-dihydro-benzo[b][1,4]diazepin-2-one] returned a melting point of 135 to 136 °C. For the same molecule, in series [1], the Ki was determined as 3 nM.

With `CCNc1nc(-c2cccc(C3=Nc4cc(N(C)C)c(Cl)cc4NC(=O)C3)c2)cs1` [Example 195, 8-Chloro-7-dimethylamino-4-[3-(2-ethylamino-thiazol-4-yl)-phenyl]-1,3-dihydro-benzo[b][1,4]diazepin-2-one], the melting point was in the range of 122 to 123 °C. Moreover, the Ki in series [1] amounted to 480 nM.

`CCCc1sc(CO)nc1-c1cccc(C2=Nc3cc(N(C)C)c(C(F)(F)F)cc3NC(=O)C2)c1` [Example 217, 7-Dimethylamino-4-[3-(2-hydroxymethyl-5-propyl-thiazol-4-yl)-phenyl]-8-trifluoromethyl-1,3-dihydro-benzo[b][1,4]diazepin-2-one] showed a melting point of 112 to 114 °C. The same measure, in the same setting: the result for `Cc1nc(-c2cccc(C3=Nc4cc(N(C)C)c(C(F)(F)F)cc4NC(=O)C3)c2)c(CO)s1` [Example 218, 7-Dimethylamino-4-[3-(5-hydroxymethyl-2-methyl-thiazol-4-yl)-phenyl]-8-trifluoromethyl-1,3-dihydro-benzo[b][1,4]diazepin-2-one] reads 226 to 227 °C. Turning to `CC(C)c1nc(-c2cccc(C3=Nc4cc(N(C)C)c(C(F)(F)F)cc4NC(=O)C3)c2)c[nH]1` [Example 221, 7-Dimethylamino-4-[3-(2-isopropyl-1H-imidazol-4-yl)-phenyl]-8-trifluoromethyl-1,3-dihydro-benzo[b][1,4]diazepin-2-one], the melting point was 150 °C (dec.). With `CN(C)c1cc2c(cc1Cl)NC(=O)CC(c1cccc(-c3nnc(CCO)s3)c1)=N2` [Example 223, 8-Chloro-7-dimethylamino-4-{3-[5-(2-hydroxy-ethyl)-[1,3,4]thiadiazol-2-yl]-phenyl}-1,3-dihydro-benzo[b][1,4]diazepin-2-one], the melting point was 198 to 200 °C.

By melting point is commonly meant the temperature of the solid-liquid transition. As a reminder, the Ki is a dissociation constant, usually derived from enzyme kinetics or from competition with a known ligand.

The record behind these values is patent publication US6544985B2, “Dihydro-benzo [b][1,4]diazepin-2-one derivatives” (Hoffman-La Roche Inc., priority 2001, dated 2003).
